Assay results taken from patent US12599676B2, “Cytotoxic imidazo[1,2-A]pyridine compounds and their use in therapy” (MyricX Pharma Limited, priority 2022, dated 2026).

How the values were obtained:
[1] = test system: RKO (human colon carcinoma); experiment: Cell cytotoxicity CellTiter-Glo, RKO; assay type: cell-based
Method: (§1) Cells were seeded in 96-well microplates and treated with compounds or cisplatin (as a positive control) at 9 increasing concentrations in technical triplicate. […] On day 1, 90 μL of various cell suspensions with the number of cells ranging from 5000-8000 cells/well were seeded into wells of a 96-well plate (Corning). The number of cells to be seeded was previously determined. • 2. All 96-wells plates with cells were placed in an incubator overnight at 37° C. with 5% CO2. • 3. On day 2, cells were observed under a microscope ensuring the cells treated with vehicle control were in good condition. • 4. A dilution series of the test compounds and cisplatin were prepared at 10× the final concentrations required. 10 μL/well of 10× compound solution was added to the corresponding plates. The final volume was 100 μL/well for all the plates. Final DMSO concentration was 0.1%. • 5. On day 5 (after 72 hours of incubation), 50 μL of CTG reagent was added to each well. • 6. Contents were mixed for 5 minutes on an orbital shaker to facilitate cell lysis. • 7. The plate was allowed to incubate at room temperature for 10 minutes to stabilize luminescent signals. […]

[2] = test system: MX-1 (human breast carcinoma); experiment: Cell cytotoxicity CellTiter-Glo, MX-1; assay type: cell-based; details: MX1
Method: as §1

Caco-2 cells = experiment: Caco-2 cell permeability assay; assay type: in vitro ADME; details: apical to basal Papp, 2 μM, pH 7.4, 2.5 h
Method: (§2) Certain Example compounds and Comparative Example 1 were tested for their apical to basal (AB) and basal to apical (BA) permeability in Caco-2 cells.
(§3) Cell Culture: Caco-2 cells were grown for 10 days in 96-well plates in HBSS buffer containing 10 mM HEPES. Both the apical and basal pH was buffered at pH 7.4. The apical/basal volumes were 75 μl and 250 μl respectively. The incubation time was 2.5 h at 37° C. (without shaking) under 5% CO2 & 95% relative humidity.
(§4) Cell Seeding: Cells were seeded at a density of 18750 cells/well (membrane area=0.0804 cm^2) in a 96 well plate.
(§5) AB Assay: 75 μl of cell suspension was added at a density 2.5×10^5 cells/ml to the apical wells. 40 ml media was added to the feeder tray. The plates were placed in the incubator (37° C., 5% CO2 and controlled humidity). The Caco-2 cells were grown for 10 days with a media change on every alternate day.
(§6) BA Assay: 25 μl of cell suspension was added at a density of 7.5×10^5 cells/ml to the bottom side (keeping the plate upside down) of apical wells. The plate (upside down position) was placed in the incubator (37° C., 5% CO2 and 95% Relative humidity) for 2 h. The plate was turned right side up. 75 μl media was added to the apical wells and 40 ml media to the feeder tray.
(§7) Permeablity Assay: The apical and basal wells were washed with buffer (pH 7.4) and 250 μl buffer was added to the wells of the basal plate. 75 μl of compound solution (2 μM, dissolved in water with 1% DMSO) was transferred to the apical wells (n=2). The apical plate was placed onto the basal plate. The lid was placed on to prevent evaporation. The assembly was incubated at 37° C. for 2.5 h (without shaking) under 5% CO2 and 95% relative humidity. After incubation the apical plate was separated from the basal plate. Aliquots were taken out from the acceptor and donor wells, diluted and quantified using LC-MS/MS along with initial donor samples.
(§8) Membrane Integrity Test: Solution in the apical wells was discarded by inverting the plate and soaking onto tissue paper. 250 μl buffer (pH 7.4) was added to each well of basal plate and 75 μl of Lucifer Yellow (LY; 0.1 mg/ml) in buffer (pH 7.4) to the wells of apical plate. The apical plate was placed onto the basal plate and the lid used to prevent evaporation. The assembly was incubated at 37° C. for 1 h (without shaking) under 5% CO2 and 95% relative humidity. The apical plate was separated from the basal plate. Fluorescence (Ex: 432 nm, Em: 530 nm) of aliquots (100 ul) was measured from basal wells. Fluorescence of 100 μl buffer (pH 7.4) and 100 μl LY(0.1 mg/ml) was also measured. Wells having more than 1% fluorescence intensity with respect to 0.1 mg/ml LY were considered non-integrated membrane. Such wells, if any, were not considered for permeability calculation.
(§9) Calculation: Drug was detected and quantified by LC-MS/MS. Data generated took the form of an apparent permeability (Papp) value. Papp=[Va/(AreaxTime)]×(LC-MS Area of Acceptor sample×Sample dilution factor/LC-MS Area of Initial Donor). Va=Volume of Acceptor Well (in ml)=0.25, Vd=Volume of Donor Well (in ml)=0.075, Area=Surface area of the membrane (cm2)=0.0804, Time=Time of incubation (sec)=9000 Results: The results of the assay are shown in Table 3 below.

[3] = Caco-2 cell permeability assay; assay type: in vitro ADME; details: human, Caco-2, pH 7.4, basal to apical Papp, pH 7.4, 2.5 h
Method: as §2, §3, §4, §5, §6, §7, §8, §9

[4] = test system: SU-DHL-10 cell line (human B cell lymphoma); experiment: Cell cytotoxicity in SU-DHL-10 cell line (CellTiter-Glo); assay type: cell-based; details: 72 h treatment, CTG
Method: Certain Example compounds of the invention and Comparator Compound 1 were tested in the SU-DHL-10 cell line (human B cell lymphoma). Compounds which show efficacy in this assay are expected to be useful as agents for treating or preventing hyperproliferative disorders such as cancer.
Cells were seeded in 96-well microplates and treated with compounds or cisplatin (as a positive control) at 9 increasing concentrations in technical triplicate. […] On day 1, 90 μL of various cell suspensions with the number of cells ranging from 5000-8000 cells/well were seeded into wells of a 96-well plate (Corning). The number of cells to be seeded was previously determined. • 2. All 96-wells plates with cells were placed in an incubator overnight at 37° C. with 5% CO2. • 3. On day 2, cells were observed under a microscope ensuring the cells treated with vehicle control were in good condition. • 4. A dilution series of the test compounds and cisplatin were prepared at 10× the final concentrations required. 10 μL/well of 10× compound solution was added to the corresponding plates. The final volume was 100 μL/well for all the plates. Final DMSO concentration was 0.1%. • 5. On day 5 (after 72 hours of incubation), 50 μL of CTG reagent was added to each well. • 6. Contents were mixed for 5 minutes on an orbital shaker to facilitate cell lysis. • 7. The plate was allowed to incubate at room temperature for 10 minutes to stabilize luminescent signals.
Luminescence was recorded using an EnVision Multi Label Reader. Data analysis was performed using GraphPad Prism 8.0.
To calculate IC50, a concentration-response curve was generated using a nonlinear regression model with a sigmoidal concentration response. The formula for calculating the % of viable cells was shown below, and the IC50s are automatically generated by GraphPad Prism 8.0.
(LumTest article=luminescence in test article treated well; LumNone treated=luminescence in vehicle treated well; LumMedium control=luminescence in a well containing only medium and no cells; LumNone treated-LumMedium control was set as 100%)

[5] = test system: NCI-H1703 (human lung squamous cell carcinoma); experiment: Cell cytotoxicity CellTiter-Glo, NCI-H1703; assay type: cell-based
Method: as §1

[6] = test system: DU4475 (human breast carcinoma); experiment: Cell cytotoxicity CellTiter-Glo, DU4475; assay type: cell-based; details: DU-4475
Method: as §1

rat hepatocytes = experiment: Hepatocyte metabolic stability, rat; assay type: in vitro ADME
Method: (§10) Biological Example 6: Rat hepatocyte half life Certain Example compounds and Comparator Compound 1 were tested for metabolic stability in a metabolic assay using mouse- and rat-derived hepatocytes. Compounds having good metabolic stability in the assay are expected to be especially useful as agents for preventing and/or treating cancer, by having a long half-life in human patients.
(§11) Frozen pooled rat and mouse hepatocytes obtained from LifeTechnologies were thawed and purified according to the manufacturer's instructions. The test compound (4 mM) in DMSO was diluted with acetonitrile to provide a 100 μM sub-stock then further diluted with pH 7.4 Krebs-Henseleit buffer (supplemented with CaCl2, NaHCO3, HEPES, fructose and glycine) to provide a 2 μM working solution. 25 μL of working solution was incubated at 37° C., treated with 25 μL of rat or mouse hepatocyte suspension (containing 1×10^6 cells/mL) and incubated at 37° C. with 5% CO2 level at 95% relative humidity. Wells were incubated for an appropriate time (0, 15, 30, 45, 60 and 75 min) then quenched with 250 μL of acetonitrile containing reference standards diltiazem, 7-ethoxycoumarin and propranolol). The plates were shaken, sonicated for 5 min then cooled to 4° C. until all sampling was complete. All plates were centrifuged at 4000 rpm for 20 min to pellet the debris. 110 μL supernatant was diluted 110 μL water and quantitated using LC-MS/MS.
(§12) A linear regression curve was fitted to a plot of natural logarithm (In) of AUC against time. The T-half (min)=0.693/slope

[7] = test system: CA46 (human B cell lymphoma); experiment: Cell cytotoxicity CellTiter-Glo, CA46; assay type: cell-based
Method: as §1

[8] = test system: HT1080 (human fibrosarcoma); experiment: Cell cytotoxicity CellTiter-Glo, HT1080; assay type: cell-based; details: HT-1080
Method: as §1

mouse hepatocytes = experiment: Hepatocyte metabolic stability, mouse; assay type: in vitro ADME
Method: as §10, §11, §12

DOHH-2 tumor cells = experiment: Subcutaneous xenograft DOHH-2 lymphoma model; assay type: in vivo, CB17/SCID mice; details: intraperitoneal dosing (Example 5: 7 or 20 mg/kg; Example 12: 0.7 or 2 mg/kg), QD cycles
Method: The in vivo efficacy of certain Example compounds was assessed in a subcutaneous xenograft DOHH-2 Lymphoma Model using 10 female 6-8 week old CB17/SCID Mice. Each mouse was inoculated subcutaneously at the right front region with DOHH-2 tumor cells (5×10^6) in 0.1 ml of PBS mixed with matrigel (1:1 PBS:matrigel) for tumor development. The test compound administration started once the mean tumor size reached approximately 100-150 mm^3.
Compounds were administered either IP (vehicle 10 mM sodium phosphate+0.2% Tween-80 (pH7.4) or orally (vehicle 15 Na2HPO4 buffer (10 mM) (pH 4.5)+0.2% tween 80). Tumor volumes were measured in two dimensions using a caliper, and the volume expressed in mm^3 using the formula: V=(L×W×W)/2, where V is tumor volume, L is tumor length (the longest tumor dimension) and W is tumor width (the longest tumor dimension perpendicular to L).
Mice were dosed with Example 21 orally (12.5 or 25 mg/kg) once a day for 9 consecutive days (FIG. 3). Example 5 was dosed intraperitoneally (7 or 20 mg/kg) in a cycle consisting of administration QD for three days followed by a three day no-dosing period followed by QD dosing for a further three days (FIG. 4). Example 12 was dosed intraperitoneally (0.7 or 2 mg/kg) in a cycle consisting of administration QD for three days followed by a three day no-dosing period followed by QD dosing for a further three days (FIG. 5). In a separate study Example 12 was dosed at […] in a cycle consisting of administration QD for two days followed by either four or six day no-dosing period, and this cycle was repeated three times (FIG. 6).

Row | Caco-2 A-B (Caco-2 cells) [×10⁻⁶ cm/s] | Papp B→A at 2.5 h, 2 μM [3] [×10⁻⁶ cm/s] | rHeps t^1/2 (rat hepatocytes) [min] | mHeps t^1/2 (mouse hepatocytes) [min] | SMILES | IC50 [1] [nM] | IC50 [2] [nM] | IC50 [4] [nM] | IC50 [5] [nM] | IC50 [6] [nM] | IC50 [7] [nM] | IC50 [8] [nM] | IC50 ([4]; Homo sapiens, SU-DHL10, 72 h) [nM] | tumour volume compared to vehicle (DOHH-2 tumor cells)
1 | 0.215 | 5.14 | 18 | 26.73 | CNCc1cnc2ccc(-c3ccc(F)c(F)c3OCCc3c(C(O)C(C)(C)C)nn(C)c3C)cn12 (single isomer, unassigned) [Example 14, 1-(4-(2-(2,3-difluoro-6-(3-((methylamino)methyl)imidazo[1,2-a]pyridin-6-yl)phenoxy)ethyl)-1,5-dimethyl-1H-pyrazol-3-yl)-2,2-dimethylpropan-1-ol] | 2 | 1.4 | 0.4 | 4 | 20 | 2 | 1 |  | 
2 | 0.1 | 14.1 | 68 |  | CNCc1cnc2ccc(-c3ccc(F)cc3OCCc3c(C(C)O)nn(C)c3C)cn12 (stereo not drawn) [Example 1, 1-{4-[2-(5-fluoro-2-{3-[(methylamino)methyl]imidazo[1,2-a]pyridin-6-yl}phenoxy)ethyl]-1,5-dimethyl-1H-pyrazol-3-yl}ethan-1-ol] |  |  |  |  |  |  |  | 15.3 | 
3 | 0.195 | 16 |  | 51.17 | CNCc1cnc2ccc(-c3ccc(F)c(F)c3OCCc3c(C(C)O)nn(C)c3C)cn12 (stereo not drawn) [Example 5, 1-{4-[2-(2,3-difluoro-6-{3-[(methylamino)methyl]imidazo[1,2-a]pyridin-6-yl}phenoxy)ethyl]-1,5-dimethyl-1H-pyrazol-3-yl}ethan-1-ol] |  |  |  |  |  |  |  | 5.9 | significant reduction in tumour volume or reduced growth in tumour volume
4 | 3.04 | 22 | 15 |  | Cc1c(CCOc2c(-c3ccc4ncc(CN(C)C)n4c3)ccc(F)c2F)c(C(C)O)nn1C (stereo not drawn) [Example 6, 1-(4-(2-(6-(3-((dimethylamino)methyl)imidazo[1,2-a]pyridin-6-yl)-2,3-difluorophenoxy)ethyl)-1,5-dimethyl-1H-pyrazol-3-yl)ethan-1-ol] |  |  |  |  |  |  |  | 5 | 
